Assays:
[1] = tested on: KB tumor xenografts; assay: PET imaging of KB tumor xenografts; format: in vivo; settings: for PET images of KB tumor xenografts: 75-105 min p.i.; for specificity of uptake (blocking with folic acid): PET, excess folic acid 10 min prior to radiotracer
Description: PET experiments were performed with Explore VISTA PET/CT tomograph (GE), which provides an ultrahigh resolution of less than 0.9 mm. Animals were lightly restrained and injected with 10-14 MBq of γ-[^18F]-glucose folate (100-150 μL per injection) via a lateral tail vein. […] Animals were anesthetized with isoflurane in an air/oxygen mixture. The PET scans were acquired from 75-105 min post-injection. The fused datasets of PET and CT were analyzed with Amira (Version 4) postprocessing software.

[2] = format: physicochemical; settings: pH 7.4
Description: The distribution coefficient (log D7.4) was determined by the shake flask method. In brief, γ-[^18F]-glucose folate was dissolved in a mixture of phosphate buffer (500 μL, pH 7.4) and n-octanol ([…]) at 20° C. The sample was equilibrated for 15 min in an over-head shaker. The two phases were separated by centrifugation (3 min, 5000 rpm) and 50 μL aliquots were taken from each layer and counted for radioactivity in a γ-counter. The partition coefficient is expressed as the ratio of radioactivity (cpm) in the octanol phase to the one in the PBS phase represents the mean±standard deviation of eight measurements.

[3] = molecular target: T1, folate receptor (Homo sapiens, UniProt P15328); assay: In vitro binding affinity assay, displacement of 3H-folic acid on KB cells; settings: 3H-folic acid 0.82 nM, 4° C., 30 min; for IC50: three independent experiments, read-out: mean inhibitory concentration of 50% (IC50 value)
T1 construct: endogenous in cells; host or cells: KB cells (human cervical carcinoma), whole-cell suspension
T1 sequence (P15328 25-234): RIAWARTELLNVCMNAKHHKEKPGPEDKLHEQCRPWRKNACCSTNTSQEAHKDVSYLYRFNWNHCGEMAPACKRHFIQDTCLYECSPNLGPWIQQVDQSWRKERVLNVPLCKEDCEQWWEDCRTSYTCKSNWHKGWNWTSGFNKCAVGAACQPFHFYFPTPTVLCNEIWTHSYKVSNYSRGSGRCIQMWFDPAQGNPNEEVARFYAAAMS
Description: Binding affinity assays were performed with KB cells derived from human cervical carcinoma, where the folate receptor is overexpressed. The cells were cultured as monolayers in 75 cm^2 flasks at 37° C. in a humidified atmosphere (7.5% CO2). The cells were kept in a special folate-deficient RPMI 1640 medium (FFRPMI 1640; Cell Culture Technologies) supplemented with heat-inactivated fetal calf serum (10%), L-glutamine, penicillin (100 IU/mL), and streptomycin ([…]). The fetal calf serum was the only source of folate in the medium, which is reported to provide a final folate concentration of about 3 nmol/mL, which is at the low end of the physiologic serum concentration in humans.
A cell suspension in pure FFRPMI 1640 medium (no additives, ice-cold) was added into 1.5 mL vials (7000 cells in 240 μL). […] After incubation, the suspension was centrifuged at 3500 rpm and 4° C. for 5 min and the supernatant was removed. By addition of 0.5 mL of 1 N NaOH, the cell pellets were resuspended and lysed at the same time. The lysed cells were stirred in a vortex mixer and transferred into scintillation tubes containing 4 mL of scintillation cocktail (Ultima Gold; Perkin Elmer). Radioactivity was measured using a β-counter (LS6500; Beckman), and the inhibitory concentrations of 50% were determined from displacement curves using Graph Pad Prism 4.0 software.

| log D7.4 [2] | Ki [3] [nM] | IC50 [3] [nM] | Structure (SMILES) | PET images of KB tumor xenografts [1] | specificity of uptake (blocking with folic acid) [1] |
| --- | --- | --- | --- | --- | --- |
| −4.21±0.14 | – | – | Nc1nc2ncc(CNc3ccc(C(=O)NC(CCC(=O)NC(Cc4cn(C5OC(CO)C(O)C(O)C5[18F])nn4)C(=O)O)C(=O)O)cc3)nc2c(=O)[nH]1 (stereo not shown) [γ-[^18F]-glucose folate] | excellent images of KB tumor xenografts | highly specific and blocked by natural folic acid |
| – | 0.7 ± 0.2 | 1.4 ± 0.2 | Nc1nc2ncc(CNc3ccc(C(=O)NC(CCC(=O)O)C(=O)NC(Cc4cn(C5OC(CO)C(O)C(O)C5F)nn4)C(=O)O)cc3)nc2c(=O)[nH]1 (stereo not drawn) [α-glucose folate, α-[^19F]-Glucose Folate] | – | – |
| −4.20±0.06 | – | – | Nc1nc2ncc(CNc3ccc(C(=O)NC(CCC(=O)O)C(=O)NC(Cc4cn(C5OC(CO)C(O)C(O)C5[18F])nn4)C(=O)O)cc3)nc2c(=O)[nH]1 (stereo not drawn) [α-[^18F]-glucose folate] | excellent images of KB tumor xenografts | highly specific and blocked by natural folic acid |
| – | 0.8 ± 0.1 | 1.6 ± 0.1 | Nc1nc2ncc(CNc3ccc(C(=O)NC(CCC(=O)NC(Cc4cn(C5OC(CO)C(O)C(O)C5F)nn4)C(=O)O)C(=O)O)cc3)nc2c(=O)[nH]1 (stereo not shown) [γ-glucose folate, γ-[^19F]-Glucose Folate] | – | – |
